Test results: US10508120B2, “TYK2 inhibitors and uses thereof” (Nimbus Lakshmi, Inc., priority 2017, dated 2019)

Columns and labels:
[1] = biological target: human TYK2 (JH2domain-pseudokinase) (Homo sapiens (Human), UniProt P29597); test: TYK2 JH2 Domain Binding Assay (KINOMEscan)
In short: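 Kds, run in duplicate, came from Hill fits (slope fixed at −1) of an 11-point 3-fold dilution series starting at 30,000 nM. Bead-retained TYK2 JH2 (aa G556–D888)–NFkB DBD fusion, DNA-tagged and expressed in HEK293 cells, was read by qPCR after 1 h room-temperature binding in 0.9% DMSO.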

Tyk2 kinase domain (DH1) = Tyk2 kinase domain (DH1) (Homo sapiens (Human), UniProt P29597); test: Tyk2 Radioactive Kinase Assay; type: biochemical; conditions: compound at 10 μM; ATP 10 μM; read-out: Tyk2 JH1% Inhibition @ 10 μM
Sequence of Tyk2 kinase domain (DH1) (P29597 897-1176): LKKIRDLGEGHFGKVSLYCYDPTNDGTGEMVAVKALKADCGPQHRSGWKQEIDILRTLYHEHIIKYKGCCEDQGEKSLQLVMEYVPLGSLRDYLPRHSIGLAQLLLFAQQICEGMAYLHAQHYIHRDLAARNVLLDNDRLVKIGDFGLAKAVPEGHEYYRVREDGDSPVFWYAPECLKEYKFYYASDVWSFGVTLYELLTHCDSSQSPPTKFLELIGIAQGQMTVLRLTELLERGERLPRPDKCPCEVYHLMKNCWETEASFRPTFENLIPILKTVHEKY
In short: (§1)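 Values are single-concentration percent inhibition figures. They were obtained with 10 μM compound in a radioactivity-based kinase assay run separately on each enzyme.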

JAK2 kinase domain (JH1) = JAK2 kinase domain (JH1) (Homo sapiens (Human), UniProt O60674); test: JAK2 Radioactive Kinase Assay; type: biochemical; conditions: compound at 10 μM; ATP 10 μM; read-out: JAK2 JH1% Inhibition @ 10 μM
Sequence of JAK2 kinase domain (JH1) (O60674 849-1124): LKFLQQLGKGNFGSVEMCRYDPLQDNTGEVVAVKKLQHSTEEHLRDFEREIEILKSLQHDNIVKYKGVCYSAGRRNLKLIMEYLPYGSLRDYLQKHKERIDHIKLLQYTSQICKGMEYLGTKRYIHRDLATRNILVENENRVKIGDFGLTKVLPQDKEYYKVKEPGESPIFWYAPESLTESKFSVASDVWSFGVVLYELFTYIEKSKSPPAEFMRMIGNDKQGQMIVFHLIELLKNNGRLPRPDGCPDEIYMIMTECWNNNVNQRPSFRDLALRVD
In short: as §1

Sequence of human TYK2 (JH2domain-pseudokinase) (P29597 556-888): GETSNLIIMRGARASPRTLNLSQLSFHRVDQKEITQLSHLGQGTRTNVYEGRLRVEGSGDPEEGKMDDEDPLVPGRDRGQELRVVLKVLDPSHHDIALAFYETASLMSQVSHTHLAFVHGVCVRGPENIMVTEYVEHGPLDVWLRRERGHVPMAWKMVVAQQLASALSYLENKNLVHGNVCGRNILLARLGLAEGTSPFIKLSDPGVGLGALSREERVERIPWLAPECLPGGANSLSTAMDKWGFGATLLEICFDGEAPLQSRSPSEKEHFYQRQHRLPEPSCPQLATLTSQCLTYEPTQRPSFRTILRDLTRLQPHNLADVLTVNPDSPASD

Row | Kd [1] [nM] | inhibition at 10 µM (Tyk2 kinase domain (DH1)) [%] | inhibition at 10 µM (JAK2 kinase domain (JH1)) [%] | SMILES
1 | < 0.2 | < 50 | < 50 | CNc1cc(Nc2cccn(-c3ccc(C(=O)N4CCC4)cn3)c2=O)nc2c(C(=O)N[C@H]3C[C@H]3F)cnn12 [I-142]
2 | 0.2 to 1 | < 50 | < 50 | CNc1cc(Nc2cccnc2OC(C)C)nc2c(C(=O)NC3CC3)cnn12 [I-146]
3 | 0.2 to 1 | < 50 | < 50 | CNc1cc(Nc2cc(Cl)cnc2OC(C)C)nc2c(C(=O)N[C@H]3C[C@H]3F)cnn12 [I-148]
4 | 1 to 10 | < 50 | < 50 | CNc1cc(Nc2cc(Cl)cnc2OC(C)C)nc2c(C(=O)NC3CCC3)cnn12 [I-149]
5 | 0.2 to 1 | < 50 | < 50 | CNc1cc(Nc2cc(Cl)cnc2OC(C)C)nc2c(C(=O)NC3CC3)cnn12 [I-150]
6 | 0.2 to 1 | < 50 | < 50 | CNc1cc(Nc2cccnc2OC(F)F)nc2c(C(N)=O)cnn12 [I-152]
7 | < 0.2 | < 50 | < 50 | CNc1cc(Nc2cccn(-c3cccc(C(C)(C)O)n3)c2=O)nc2c(C(=O)NC3CC3)cnn12 [I-155]
8 | < 0.2 | < 50 | < 50 | CNc1cc(Nc2cccn(-c3nccs3)c2=O)nc2c(C(=O)NC3CC3)cnn12 [I-157]
9 | 0.2 to 1 | < 50 | < 50 | CNc1cc(Nc2cc(C)cn(-c3cnn(C4CC4)c3C)c2=O)nc2c(C(=O)NC3CCC3)cnn12 [I-159]
10 | < 0.2 | < 50 | < 50 | CNc1cc(Nc2cccn([C@H]3CC[C@H](O)CC3)c2=O)nc2c(C(=O)N[C@H]3C[C@H]3F)cnn12 [I-166]
11 | < 0.2 | < 50 | < 50 | CNc1cc(Nc2cccn([C@H]3CC[C@H](O)CC3)c2=O)nc2c(C(=O)NC3CC3)cnn12 [I-167]
12 | 0.2 to 1 | < 50 | < 50 | CNc1cc(Nc2cccnc2OC2CCC2)nc2c(C(=O)NC3CCC3)cnn12 [I-168]
13 | 0.2 to 1 | < 50 | < 50 | CNc1cc(Nc2cccnc2OC2CCC2)nc2c(C(=O)NC3CC3)cnn12 [I-169]
14 | 0.2 to 1 | < 50 | < 50 | CNc1cc(Nc2cccnc2O[C@@H]2CCOC2)nc2c(C(=O)NC3CCC3)cnn12 [I-171]
15 | 0.2 to 1 | < 50 | < 50 | CNc1cc(Nc2cccnc2O[C@@H]2CCOC2)nc2c(C(=O)NC3CC3)cnn12 [I-172]
16 | 0.2 to 1 | < 50 | < 50 | CNc1cc(Nc2cccnc2OC2CCOCC2)nc2c(C(=O)NC3CC3)cnn12 [I-173]
17 | < 0.2 | < 50 | < 50 | CNc1cc(Nc2cccnc2OC2CCOCC2)nc2c(C(=O)N[C@H]3C[C@H]3F)cnn12 [I-174]
18 | 0.2 to 1 | < 50 | < 50 | CNc1cc(Nc2cc(Cl)cn(-c3cn(C4CC4)nc3C)c2=O)nc2c(C(N)=O)cnn12 [I-178]
19 | 0.2 to 1 | < 50 | < 50 | CNc1cc(Nc2cc(Cl)cn(-c3cn(C4CC4)nc3C)c2=O)nc2c(C(=O)NC3CCC3)cnn12 [I-179]
20 | < 0.2 | < 50 | < 50 | CNc1cc(Nc2cc(Cl)cn(-c3cnn(C4CC4)c3C)c2=O)nc2c(C(N)=O)cnn12 [I-180]
21 | 0.2 to 1 | < 50 | < 50 | CNc1cc(Nc2cc(Cl)cn(-c3cnn(C4CC4)c3C)c2=O)nc2c(C(=O)NC3CCC3)cnn12 [I-181]
22 | < 0.2 | < 50 | < 50 | CNc1cc(Nc2cccnc2O[C@H]2C[C@@H](OC)C2)nc2c(C(=O)NC3CCC3)cnn12 [I-183]
23 | 0.2 to 1 | < 50 | < 50 | CNc1cc(Nc2cccnc2O[C@H]2C[C@@H](OC)C2)nc2c(C(=O)NC3CC3)cnn12 [I-184]
24 | 0.2 to 1 | < 50 | < 50 | CNc1cc(Nc2cccnc2OC2CCOCC2)nc2c(C(=O)NC3CCC3)cnn12 [I-185]
25 | < 0.2 | < 50 | < 50 | CNc1cc(Nc2cccnc2O[C@H]2C[C@@H](OC)C2)nc2c(C(=O)N[C@H]3C[C@H]3F)cnn12 [I-186]
26 | < 0.2 | < 50 | < 50 | CNc1cc(Nc2cccnc2O[C@H]2C[C@H](OC)C2)nc2c(C(=O)NC3CCC3)cnn12 [I-187]

Row | Kd [1] [nM] | inhibition at 10 µM (Tyk2 kinase domain (DH1)) [%] | inhibition at 10 µM (JAK2 kinase domain (JH1)) [%] | SMILES
27 | < 0.2 | < 50 | < 50 | CNc1cc(Nc2cccnc2O[C@H]2C[C@H](OC)C2)nc2c(C(=O)NC3CC3)cnn12 [I-188]
28 | < 0.2 | < 50 | < 50 | CNc1cc(Nc2cccnc2O[C@H]2C[C@H](OC)C2)nc2c(C(=O)N[C@H]3C[C@H]3F)cnn12 [I-189]
29 | < 0.2 | < 50 | < 50 | CNc1cc(Nc2cccn(C3CCN(CC(F)F)CC3)c2=O)nc2c(C(=O)NC3CC3)cnn12 [I-191]
30 | 0.2 to 1 | < 50 | < 50 | CNc1cc(Nc2cccn([C@@H]3CCOC3)c2=O)nc2c(C(N)=O)cnn12 [I-195]
31 | 0.2 to 1 | < 50 | < 50 | CNc1cc(Nc2cccn([C@H]3CCOC3)c2=O)nc2c(C(N)=O)cnn12 [I-196]
32 | 0.2 to 1 | < 50 | < 50 | CNc1cc(-c2c[nH]c3c(C4CCOCC4)cc(Cl)cc23)nc2c(C(=O)NC3CC3)cnn12 [I-197]
33 | 0.2 to 1 | < 50 | < 50 | CNc1cc(Nc2cccnc2OC(CO)CO)nc2c(C(=O)NC3CC3)cnn12 [I-199]
34 | 0.2 to 1 | < 50 | < 50 | CNc1cc(Nc2cccnc2OC(CO)CO)nc2c(C(=O)N[C@H]3C[C@H]3F)cnn12 [I-200]
35 | < 0.2 | < 50 | < 50 | CNc1cc(Nc2cccnc2OC(CO)CO)nc2c(C(=O)NC3CCC3)cnn12 [I-201]
36 | 0.2 to 1 | < 50 | < 50 | CNc1cc(Nc2cccn([C@@H]3CCOC3)c2=O)nc2c(C(=O)NC3CC3)cnn12 [I-202]
37 | < 0.2 | < 50 | < 50 | CNc1cc(Nc2cccn([C@H]3CCOC3)c2=O)nc2c(C(=O)NC3CC3)cnn12 [I-203]
38 | 0.2 to 1 | < 50 | < 50 | CNc1cc(Nc2cccn([C@@H]3CCOC3)c2=O)nc2c(C(=O)NC3CCC3)cnn12 [I-204]
39 | < 0.2 | < 50 | < 50 | CNc1cc(Nc2cccn([C@H]3CCOC3)c2=O)nc2c(C(=O)NC3CCC3)cnn12 [I-205]
40 | 1 to 10 | < 50 | < 50 | Cc1c(Nc2cccnc2OC(C)C)nc2c(C(=O)NC3CC3)cnn2c1N [I-207, 7-amino-N-cyclopropyl-5-((2-isopropoxypyridin-3-yl)amino)-6-methylpyrazolo[1,5-a]pyrimidine-3-carboxamide]
41 | 1 to 10 | < 50 | < 50 | Cc1c(Nc2cccnc2OC(C)C)nc2c(C(=O)NC3CCC3)cnn2c1N [I-208, 7-amino-N-cyclobutyl-5-((2-isopropoxypyridin-3-yl)amino)-6-methyl pyrazolo[1,5-a]pyrimidine-3-carboxamide]
42 | 0.2 to 1 | < 50 | < 50 | CNc1cc(Nc2cc(F)cnc2OC(C)C)nc2c(C(=O)NC3CC3)cnn12 [I-209]
43 | 0.2 to 1 | < 50 | < 50 | CNc1cc(Nc2cc(F)cnc2OC(C)C)nc2c(C(=O)NC3CCC3)cnn12 [I-210]
44 | 0.2 to 1 | < 50 | < 50 | CNc1cc(Nc2cc(C)cnc2OC(C)C)nc2c(C(=O)NC3CC3)cnn12 [I-212]
45 | 1 to 10 | < 50 | < 50 | CNc1cc(Nc2cc(C)cnc2OC(C)C)nc2c(C(=O)NC3CCC3)cnn12 [I-213]
46 | < 0.2 | < 50 | < 50 | CNc1cc(Nc2cc(C)cnc2OC(C)C)nc2c(C(=O)N[C@H]3C[C@H]3F)cnn12 [I-214]
47 | < 0.2 | < 50 | < 50 | CNc1cc(Nc2cccnc2OCCOC)nc2c(C(=O)NC3CC3)cnn12 [I-218]
48 | 1 to 10 | < 50 | < 50 | CNc1cc(Nc2cccnc2OC2CCCCC2)nc2c(C(=O)NC3CC3)cnn12 [I-221]
49 | 1 to 10 | < 50 | < 50 | CNc1cc(Nc2cccnc2OC2CCCCC2)nc2c(C(=O)NC3CCC3)cnn12 [I-226]
50 | 0.2 to 1 | < 50 | < 50 | CNc1cc(Nc2cccnc2OC2CCCCC2)nc2c(C(=O)N[C@H]3C[C@H]3F)cnn12 [I-227]
51 | 1 to 10 | < 50 | < 50 | CNc1cc(Nc2cccnc2OC2COC2)nc2c(C(=O)NC3CC3)cnn12 [I-228]
